From EP4725956A1, “MODIFIED POLYPEPTIDE AND USE THEREOF IN FIELD OF ANALGESIA” (Nanjing Anji Biotechnology Co., Ltd., priority 2023, dated 2024) come the findings set out here.

Series [1] deals with T1, α9 nAChR (Homo sapiens, UniProt Q9UGM1).
T1 construct: inferred from capture on NTA sensor
The experiment in a line: BLI (biolayer interferometry) affinity of peptides to α9 nAChR. Type of series: binding. As to conditions: NTA sensor, α9 nAChR 5 µg/mL, peptide 1.372-1000 nM in PBS. From the text:
BLI is a label-free technology that converts optical interference signals occurring on the surface of BLI biosensors into real-time response signals. By monitoring the molecular binding process in real time, the system determines association rate constants (ka or kon), dissociation rate constants (kd or koff), and initial binding rates, and calculates affinity (KD) by fitting analysis. Here are the specific procedures: NTA sensors (Sartorius) were placed in a pre-wetting tray, which was then positioned in a black 96-well plate with 200 µL PBS per well. The NTA sensors were pre-wetted for at least 15 minutes. The target protein α9 nAChR was diluted in PBS to 5 µg/mL, with 200 µL added per well. Test peptides were dissolved in PBS and serially diluted threefold, with concentrations from high to low as 1000 nM, 333.3 nM, 111.1 nM, 37.04 nM, 12.35 nM, 4.115 nM, and 1.372 nM, with an additional well with PBS only as a zeroconcentration control. After equilibrating the instrument baseline, the NTA sensor was used to immobilize the target protein α9 nAChR. Once immobilization was complete, the baseline was re-equilibrated, followed by a 5-minute association and a 5-minute dissociation phase. Affinity measurements of the test peptides were conducted sequentially using the above procedure. The procedure for measuring peptide affinity to α7 nAChR was similar, except that the α7 nAChR concentration was 20 µg/mL. Tables 2 and 3 show the BLI-determined affinities of alanine-scan peptide analogs with target proteins, which identified sites on the parent peptide suitable for modification. Subsequently, single-site non-natural amino acid substituted peptides were evaluated by BLI for target protein affinity. Finally, multi-site combinatorial modified peptides were measured for affinity by BLI, leading to the selection of high-affinity peptides for further screen and drug development potential. Table 2 Test Results for Affinity of Modified Peptides to α9 nAChR
On the technique in general: In BLI a coated tip is dipped into the sample, and binding shifts an interference pattern.

For series [2], the system named is mouse oxaliplatin acute chemotherapy pain model. Put plainly: Mouse oxaliplatin chemotherapy pain model, multiple peptides (Example 8). Type of series: in vivo. As to conditions: single dose 3 mg/kg s.c., 0.5-8 h post-dose, n=3. The method, then:
Oxaliplatin was dissolved in 5% glucose solution to a concentration of 1 mg/mL. For model induction, each male C57 mouse (Shanghai Bikai Keyi Biotechnology Co., Ltd.) received a single intraperitoneal injection of oxaliplatin at 10 mg/kg. Mice in the negative control or blank control group received 5% glucose solution. Approximately one week after model induction, mechanical pain thresholds of the mice were measured three times per mouse, and the average value was calculated. Mice were then randomly assigned to groups based on their pain thresholds. Drug administration was carried out according to the dosing schedule shown in Table 7, with a single dose per mouse. Mechanical pain thresholds were measured at 0.5, 1, 2, 4, 6, and 8 h post-dose. […] Table 7 Dosing Scheme for Oxaliplatin Chemotherapy Pain Model in Mice

The nature of series [3]: Plasma stability of AJ003-40 and AJ003-24 (HPLC, Example 4). The settings on record: human plasma; for main peak area: 2 mg/mL. Type of series: in vitro ADME. The method, then:
Peptides AJ003-40 and AJ003-24 were separately weighed and mixed with human plasma to prepare solutions at 2 mg/mL. 300 µL of peptide-containing plasma was mixed with 300 µL acetonitrile, centrifuged at 4°C and 12,000 rpm for 5 minutes, and the supernatant was filtered through an organic membrane. 200 µL of the filtrate was transferred to an LC vial as the 0 h sample. Peptide-containing plasma was incubated in a 37°C water bath. For AJ003-40, 300 µL of plasma was sampled at 24 h, mixed with 300 µL acetonitrile, centrifuged, filtered, and 200 µL of the filtrate was transferred to an LC vial as the 24 h sample. For AJ003-24, 300 µL of plasma was sampled at 22 h, processed similarly, and 200 µL of the filtrate was transferred to an LC vial as the 22 h sample.

Each structure is given as a SMILES string. Positions of bridges follow the written chain, without caps; N, C: chain ends. Non-standard residues stand in square brackets, D forms with d. Residues, ends and D or L forms follow the SMILES beside them. Bip = N[C@@H](Cc1ccc(-c2ccccc2)cc1)C(=O)O; Hyp = O=C(O)[C@@H]1C[C@@H](O)CN1; Nle = CCCC[C@H](N)C(=O)O; Orn = NCCC[C@H](N)C(=O)O; Aib = CC(C)(N)C(=O)O

T1 sequence (Q9UGM1 23-479): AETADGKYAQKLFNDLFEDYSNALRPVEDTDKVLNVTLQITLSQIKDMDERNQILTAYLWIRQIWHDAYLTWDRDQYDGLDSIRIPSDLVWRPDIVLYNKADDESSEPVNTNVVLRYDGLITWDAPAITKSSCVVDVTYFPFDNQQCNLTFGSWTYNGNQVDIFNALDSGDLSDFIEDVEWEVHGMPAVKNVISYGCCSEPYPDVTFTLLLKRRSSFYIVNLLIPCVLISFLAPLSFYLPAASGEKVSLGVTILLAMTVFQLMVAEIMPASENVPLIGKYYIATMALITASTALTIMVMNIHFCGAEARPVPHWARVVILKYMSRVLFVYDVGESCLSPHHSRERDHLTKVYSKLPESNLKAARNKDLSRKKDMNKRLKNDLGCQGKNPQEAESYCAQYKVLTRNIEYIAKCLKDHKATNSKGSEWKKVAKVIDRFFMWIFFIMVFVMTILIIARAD

Broadly, the Kd is the concentration at which binding is half-saturated. Read a high Kd as a looser complex. As to `CC(C)C[C@H](NC(=O)[C@@H](NC(=O)[C@H]1CSSC[C@H](NC(=O)[C@H](CO)NC(=O)CN)C(=O)N[C@@H](CO)C(=O)N[C@@H]([C@@H](C)O)C(=O)N2CCC[C@H]2C(=O)N2CCC[C@H]2C(=O)N[C@@H](CO)C(=O)N1)C(C)C)C(=O)N[C@@H](Cc1ccc(O)cc1)C(=O)N[C@@H](CO)C(=O)O` [AJ003, GSCSTPPS-(D-Cys)-VLYS (disulfide bond between positions 3 and 9)] (H-GSCSTPPS[dC]VLYS-OH; disulfide 3-9), the Kd in series [1] turned out to be 4.48 nM. Regarding `CCCC[C@H](NC(=O)[C@@H](NC(=O)[C@H]1CSSC[C@H](NC(=O)[C@H](CO)NC(=O)CN)C(=O)N[C@@H](CO)C(=O)N[C@H]([C@H](C)O)C(=O)N2C[C@H](O)C[C@H]2C(=O)N2C[C@H](O)C[C@H]2C(=O)NC(C)(C)C(=O)N1)C(C)C)C(=O)N[C@@H](Cc1ccc(-c2ccccc2)cc1)C(=O)N[C@@H](CCCN)C(N)=O` [AJ003-36, GSCS-(D-Thr)-Hyp-Hyp-Aib-(D-Cys)-V-Nle-Bip-Orn-NH2 (3,9 disulfide bond)] (H-GSCS[dT][Hyp][Hyp][Aib][dC]V[Nle][Bip][Orn]-NH2; disulfide 3-9), in series [2], the “analgesic activity against oxaliplatin-induced chemotherapy pain (mechanical pain threshold compared with the model group)” value is reported as “effective analgesic activity”.

Consider `CCCC[C@H](NC(=O)[C@@H](NC(=O)[C@H]1CSSC[C@H](NC(=O)[C@H](CO)NC(=O)CN)C(=O)N[C@@H](CO)C(=O)N[C@H]([C@H](C)O)C(=O)N2C[C@H](O)C[C@H]2C(=O)N2C[C@H](O)C[C@H]2C(=O)N[C@@H](CO)C(=O)N1)C(C)C)C(=O)N[C@@H](Cc1c[nH]c2ccccc12)C(=O)N[C@@H](CCCN)C(N)=O` [AJ003-40, GSCS-(D-Thr)-Hyp-Hyp-S-(D-Cys)-V-Nle-W-Orn-NH2 (3,9 disulfide bond)] (H-GSCS[dT][Hyp][Hyp]S[dC]V[Nle]W[Orn]-NH2; disulfide 3-9), for which the main peak area is listed as 15149.38 in series [3] (0 h) and 11829.51 in series [3] (37°C, 24 h). Moreover, the metabolised at 24 h, 2 mg/mL in series [3] (37°C, 24 h, read-out: degradation) stood at 21.9%.
